According to patent publication US20240165018A1, “HYDROGEL IMPLANTS FOR LOWERING INTRAOCULAR PRESSURE” (OCULAR THERAPEUTIX, INC., priority 2019, published 2024):
Read-outs that look alike come from different tables or passages of the source.

Tests used:
[1] = test system: lasered hypertensive cynomolgus monkeys; conditions: cited from earlier work
glaucomatous beagles [2] = assay: Pupil diameter changes in glaucomatous beagles after travoprost instillations; type: in vivo
Source text: (§1) A pharmacodynamic study performed in twelve glaucomatous beagles evaluated the changes in intraocular pressure (IOP) and pupil diameter (PD) after instillations of 0.033, 0.0033, 0.001, 0.00033, and 0.0001% travoprost in multiple single-dose studies.

glaucomatous beagles [3] = assay: IOP changes in glaucomatous beagles after travoprost instillations; type: in vivo
Source text: as §1

[4] = test system: subjects with primary open-angle glaucoma or ocular hypertension; assay: IOP in subjects with primary open-angle glaucoma or ocular hypertension; type: in vivo, human; conditions: patients
Source text: Patient population was controlled ocular hypertension or primary open-angle glaucoma; open, normal anterior chamber angles on gonioscopy. Primary outcomes were as follows. Diurnal IOP (8 AM, 10 AM, 4 PM) at Baseline. Day 14. Day 42. Day 85, Month 4 and Month 6. Intraocular pressure at 8 AM at Day 1. Day 3. Day 7 and Day 28. Safety evaluations, including adverse event reporting, ocular comfort, global tolerance, BCVA, endothelial cell counts, and pachymetry.

SMILES: CC(C)OC(=O)CCC/C=C\C[C@@H]1[C@@H](/C=C/[C@@H](O)COc2cccc(C(F)(F)F)c2)[C@H](O)C[C@@H]1O [travoprost]
- IOP lowering ([1]; continued twice a day dosing at 0.1 μg, after doses 4 and 5): significant lowering of IOP
- IOP lowering ([1]; single dose of 0.1 μg): did not significantly lower IOP
- IOP reduction ([1]; single dose of 0.3 μg): 19-26%
- PD changes (glaucomatous beagles [2]; 0.0001% concentration): still significant
- pupil constriction maintained for 24 hours (glaucomatous beagles [2]; all dosage strengths): no dosage strength maintained pupil constriction for 24 hours
- effect on pupil diameter (PD) (glaucomatous beagles [2]; concentrations of 0.00033, 0.001, and 0.0033%): significantly lowered
- effect on IOP (glaucomatous beagles [3]; 0.0001% concentration): limited IOP changes
- effect on IOP (glaucomatous beagles [3]; concentrations of 0.00033, 0.001, and 0.0033%, single-dose instillation): significantly lowered
- dosage strength that maintained IOP reduction for 24 hours (glaucomatous beagles [3]; dog, in vivo): ≥ 0.001%
- onset of decrease in mean IOP following administration [4]: as early as two days
